{
  "source": "patent US12036226B2",
  "about": "“Methods of treating subjects having diabetes with chronic kidney disease” (Poxel SA, priority 2018, dated 2024)",
  "test_system": "subjects with T2DM and CKD stage 3B or 4",
  "test": "Phase 1b 28-day safety, tolerability and PK study in subjects with T2DM and CKD stage 3B or 4",
  "format": "in vivo",
  "text": "An Open Label, Parallel Arm Study to Assess the Safety, Tolerability, and Pharmacokinetics of Imeglimin in Subjects with Type 2 Diabetes Mellitus (T2DM) and Moderate to Severe Chronic Kidney Disease (CKD)\nThis Phase 1b study is to assess the safety, tolerability and pharmacokinetics (PK) of imeglimin in subjects with T2DM and CKD stage 3B or 4.\nSubjects will be randomly allocated to receive one of three treatments or placebo.\nDoses which are below the minimally acceptable doses are acceptable if stable for 12 weeks prior to Screening as per prescribing information. […] Primary Outcome Measures […]\nSafety can be evaluated by assessment of clinical laboratory tests, physical examinations, vital signs measurements, and ECG readings at various time points during the study, and by the documentation of AEs.\nThe incidence of treatment-emergent adverse events (TEAE) will be summarized by treatment.\nPlasma lactate will be summarized descriptively by absolute value at each visit by treatment group, together with the corresponding changes from baseline.\nPharmacokinetics (PK) data can be descriptively summarized by treatment group. PK parameters will be determined using noncompartmental methods. […] Steady-state can be evaluated using the trough concentration data.",
  "data": [
    {"compound": "C[C@H]1N=C(N(C)C)N=C(N)N1", "note": "[imeglimin, (6R)—N^2, N^2,6-trimethyl-3,6-dihydro-1,3,5-triazine-2,4-diamine]", "values": [
      {"measurement": "Subjects with any TEAE", "setting": "500 mg BID, CKD3b (n = 8)", "value": "2 (25%) n, %"},
      {"measurement": "Subjects with any TEAE by maximum severity: Grade 1 - Mild", "setting": "500 mg BID, CKD3b (n = 8)", "value": "1 (13%) n, %"},
      {"measurement": "Subjects with any TEAE by maximum severity: Grade 2 - Moderate", "setting": "500 mg BID, CKD3b (n = 8)", "value": "1 (13%) n, %"},
      {"measurement": "Subjects with any TEAE by maximum severity: Grade 3 - Severe", "setting": "500 mg BID, CKD3b (n = 8)", "value": "0 n, %"},
      {"measurement": "Subjects with any TEAE by maximum severity: Grade 4 - Life-threatening", "setting": "500 mg BID, CKD3b (n = 8)", "value": "0 n, %"},
      {"measurement": "Subjects with any TEAE by maximum severity: Grade 5 - Death", "setting": "500 mg BID, CKD3b (n = 8)", "value": "0 n, %"},
      {"measurement": "Subjects with any study drug related TEAE", "setting": "500 mg BID, CKD3b (n = 8)", "value": "0 n, %"},
      {"measurement": "Subjects with any study drug related TEAE: Grade 1 - Mild", "setting": "500 mg BID, CKD3b (n = 8)", "value": "0 n, %"},
      {"measurement": "Subjects with any study drug related TEAE: Grade 2 - Moderate", "setting": "500 mg BID, CKD3b (n = 8)", "value": "0 n, %"},
      {"measurement": "Subjects with any study drug related TEAE: Grade 3 - Severe", "setting": "500 mg BID, CKD3b (n = 8)", "value": "0 n, %"},
      {"measurement": "Subjects with any study drug related TEAE: Grade 4 - Life-threatening", "setting": "500 mg BID, CKD3b (n = 8)", "value": "0 n, %"},
      {"measurement": "Subjects with any study drug related TEAE: Grade 5 - Death", "setting": "500 mg BID, CKD3b (n = 8)", "value": "0 n, %"},
      {"measurement": "TEAE: Gastrointestinal disorders", "setting": "500 mg BID, CKD3b (n = 8)", "value": "1 (13%) n, %"},
      {"measurement": "Subjects with any TEAE", "setting": "500 mg BID, CKD4 (n = 5)", "value": "1 (20%) n, %"},
      {"measurement": "Subjects with any TEAE by maximum severity: Grade 1 - Mild", "setting": "500 mg BID, CKD4 (n = 5)", "value": "0 n, %"},
      {"measurement": "Subjects with any TEAE by maximum severity: Grade 2 - Moderate", "setting": "500 mg BID, CKD4 (n = 5)", "value": "1 (20%) n, %"},
      {"measurement": "Subjects with any TEAE by maximum severity: Grade 3 - Severe", "setting": "500 mg BID, CKD4 (n = 5)", "value": "0 n, %"},
      {"measurement": "Subjects with any TEAE by maximum severity: Grade 4 - Life-threatening", "setting": "500 mg BID, CKD4 (n = 5)", "value": "0 n, %"},
      {"measurement": "Subjects with any TEAE by maximum severity: Grade 5 - Death", "setting": "500 mg BID, CKD4 (n = 5)", "value": "0 n, %"},
      {"measurement": "Subjects with any study drug related TEAE", "setting": "500 mg BID, CKD4 (n = 5)", "value": "0 n, %"},
      {"measurement": "Subjects with any study drug related TEAE: Grade 1 - Mild", "setting": "500 mg BID, CKD4 (n = 5)", "value": "0 n, %"},
      {"measurement": "Subjects with any study drug related TEAE: Grade 2 - Moderate", "setting": "500 mg BID, CKD4 (n = 5)", "value": "0 n, %"},
      {"measurement": "Subjects with any study drug related TEAE: Grade 3 - Severe", "setting": "500 mg BID, CKD4 (n = 5)", "value": "0 n, %"},
      {"measurement": "Subjects with any study drug related TEAE: Grade 4 - Life-threatening", "setting": "500 mg BID, CKD4 (n = 5)", "value": "0 n, %"},
      {"measurement": "Subjects with any study drug related TEAE: Grade 5 - Death", "setting": "500 mg BID, CKD4 (n = 5)", "value": "0 n, %"},
      {"measurement": "TEAE: Gastrointestinal disorders", "setting": "500 mg BID, CKD4 (n = 5)", "value": "0 n, %"},
      {"measurement": "Subjects with any TEAE", "setting": "1000 mg BID, CKD3b (n = 6)", "value": "4 (67%) n, %"},
      {"measurement": "Subjects with any TEAE by maximum severity: Grade 1 - Mild", "setting": "1000 mg BID, CKD3b (n = 6)", "value": "2 (33%) n, %"},
      {"measurement": "Subjects with any TEAE by maximum severity: Grade 2 - Moderate", "setting": "1000 mg BID, CKD3b (n = 6)", "value": "2 (33%) n, %"},
      {"measurement": "Subjects with any TEAE by maximum severity: Grade 3 - Severe", "setting": "1000 mg BID, CKD3b (n = 6)", "value": "0 n, %"},
      {"measurement": "Subjects with any TEAE by maximum severity: Grade 4 - Life-threatening", "setting": "1000 mg BID, CKD3b (n = 6)", "value": "0 n, %"},
      {"measurement": "Subjects with any TEAE by maximum severity: Grade 5 - Death", "setting": "1000 mg BID, CKD3b (n = 6)", "value": "0 n, %"},
      {"measurement": "Subjects with any study drug related TEAE", "setting": "1000 mg BID, CKD3b (n = 6)", "value": "2 (33%) n, %"},
      {"measurement": "Subjects with any study drug related TEAE: Grade 1 - Mild", "setting": "1000 mg BID, CKD3b (n = 6)", "value": "1 (17%) n, %"},
      {"measurement": "Subjects with any study drug related TEAE: Grade 2 - Moderate", "setting": "1000 mg BID, CKD3b (n = 6)", "value": "1 (17%) n, %"},
      {"measurement": "Subjects with any study drug related TEAE: Grade 3 - Severe", "setting": "1000 mg BID, CKD3b (n = 6)", "value": "0 n, %"},
      {"measurement": "Subjects with any study drug related TEAE: Grade 4 - Life-threatening", "setting": "1000 mg BID, CKD3b (n = 6)", "value": "0 n, %"},
      {"measurement": "Subjects with any study drug related TEAE: Grade 5 - Death", "setting": "1000 mg BID, CKD3b (n = 6)", "value": "0 n, %"},
      {"measurement": "TEAE: Gastrointestinal disorders", "setting": "1000 mg BID, CKD3b (n = 6)", "value": "1 (17%) n, %"},
      {"measurement": "Subjects with any TEAE", "setting": "1000 mg BID, CKD4 (n = 7)", "value": "4 (57%) n, %"},
      {"measurement": "Subjects with any TEAE by maximum severity: Grade 1 - Mild", "setting": "1000 mg BID, CKD4 (n = 7)", "value": "2 (29%) n, %"},
      {"measurement": "Subjects with any TEAE by maximum severity: Grade 2 - Moderate", "setting": "1000 mg BID, CKD4 (n = 7)", "value": "2 (29%) n, %"},
      {"measurement": "Subjects with any TEAE by maximum severity: Grade 3 - Severe", "setting": "1000 mg BID, CKD4 (n = 7)", "value": "0 n, %"},
      {"measurement": "Subjects with any TEAE by maximum severity: Grade 4 - Life-threatening", "setting": "1000 mg BID, CKD4 (n = 7)", "value": "0 n, %"},
      {"measurement": "Subjects with any TEAE by maximum severity: Grade 5 - Death", "setting": "1000 mg BID, CKD4 (n = 7)", "value": "0 n, %"},
      {"measurement": "Subjects with any study drug related TEAE", "setting": "1000 mg BID, CKD4 (n = 7)", "value": "1 (14%) n, %"},
      {"measurement": "Subjects with any study drug related TEAE: Grade 1 - Mild", "setting": "1000 mg BID, CKD4 (n = 7)", "value": "1 (14%) n, %"},
      {"measurement": "Subjects with any study drug related TEAE: Grade 2 - Moderate", "setting": "1000 mg BID, CKD4 (n = 7)", "value": "0 n, %"},
      {"measurement": "Subjects with any study drug related TEAE: Grade 3 - Severe", "setting": "1000 mg BID, CKD4 (n = 7)", "value": "0 n, %"},
      {"measurement": "Subjects with any study drug related TEAE: Grade 4 - Life-threatening", "setting": "1000 mg BID, CKD4 (n = 7)", "value": "0 n, %"},
      {"measurement": "Subjects with any study drug related TEAE: Grade 5 - Death", "setting": "1000 mg BID, CKD4 (n = 7)", "value": "0 n, %"},
      {"measurement": "TEAE: Gastrointestinal disorders", "setting": "1000 mg BID, CKD4 (n = 7)", "value": "2 (29%) n, %"},
      {"measurement": "Subjects with any TEAE", "setting": "1500 mg QD, CKD3b (n = 17)", "value": "4 (57%) n, %"},
      {"measurement": "Subjects with any TEAE by maximum severity: Grade 1 - Mild", "setting": "1500 mg QD, CKD3b (n = 17)", "value": "3 (43%) n, %"},
      {"measurement": "Subjects with any TEAE by maximum severity: Grade 2 - Moderate", "setting": "1500 mg QD, CKD3b (n = 17)", "value": "1 (14%) n, %"}
    ]}
  ]
}
